pIC50: −log10 of the molar value.
Columns and labels:
Homo sapiens [1] = organism: Homo sapiens; assay: Toxicity in chronic CML patient assessed as maximum tolerated dose; type: organism-based; conditions: in vivo
[2] = Antiproliferative activity against BCR-ABL1 transfected mouse BA/F3 cells; type: functional, cell-based; conditions: BaF3
[3] = Antiproliferative activity against human GIST882 cells; type: functional, cell-based
K562 = assay: Antiproliferative activity against human K562 cells; type: functional, cell-based
[4] = Antiproliferative activity against PDGFRbeta transfected mouse BA/F3 cells; type: functional, cell-based; conditions: BaF3
[5] = Antiproliferative activity against mouse M-NFS-60 cells; type: functional, cell-based
[6] = Antiproliferative activity mouse BA/F3 cells in presence of interleukin 3; type: functional, cell-based; conditions: BaF3
Homo sapiens [7] = organism: Homo sapiens; assay: Toxicity in chronic CML patient assessed as cytogenetic response; type: organism-based; conditions: in vivo

Row | Compound | MTD (Homo sapiens [1]) [mg] | pIC50 [2] | pIC50 [3] | pIC50 (K562) | pIC50 [4] | pIC50 [5] | pIC50 [6] | Activity (Homo sapiens [7])
1 | Cc1ccc(NC(=O)c2ccc(CN3CCN(C)CC3)cc2)cc1Nc1nccc(-c2cccnc2)n1 [IMATINIB] | 400 | 6.17 | 6.97 | 6.61 | 7.41 | 6.45 | 5.02 | Non-toxic
2 | Cc1cn(-c2cc(NC(=O)c3ccc(C)c(Nc4nccc(-c5cccnc5)n4)c3)cc(C(F)(F)F)c2)cn1 [NILOTINIB] | – | 7.60 | 6.82 | 7.68 | 7.21 | 6.08 | < 5.00 | –

Reference: ChEMBL document CHEMBL1250538 (Bioorg Med Chem, 2010)
